Patent US10947289B2, “Glyco-modified atrial natriuretic peptide” (priority 2013, dated 2021)

Molecular target: T1, human GC-A (Homo sapiens, UniProt P16066)
T1 construct: expressed in transfected cells; host or cells: CHO cells
T1 sequence (P16066 33-1061): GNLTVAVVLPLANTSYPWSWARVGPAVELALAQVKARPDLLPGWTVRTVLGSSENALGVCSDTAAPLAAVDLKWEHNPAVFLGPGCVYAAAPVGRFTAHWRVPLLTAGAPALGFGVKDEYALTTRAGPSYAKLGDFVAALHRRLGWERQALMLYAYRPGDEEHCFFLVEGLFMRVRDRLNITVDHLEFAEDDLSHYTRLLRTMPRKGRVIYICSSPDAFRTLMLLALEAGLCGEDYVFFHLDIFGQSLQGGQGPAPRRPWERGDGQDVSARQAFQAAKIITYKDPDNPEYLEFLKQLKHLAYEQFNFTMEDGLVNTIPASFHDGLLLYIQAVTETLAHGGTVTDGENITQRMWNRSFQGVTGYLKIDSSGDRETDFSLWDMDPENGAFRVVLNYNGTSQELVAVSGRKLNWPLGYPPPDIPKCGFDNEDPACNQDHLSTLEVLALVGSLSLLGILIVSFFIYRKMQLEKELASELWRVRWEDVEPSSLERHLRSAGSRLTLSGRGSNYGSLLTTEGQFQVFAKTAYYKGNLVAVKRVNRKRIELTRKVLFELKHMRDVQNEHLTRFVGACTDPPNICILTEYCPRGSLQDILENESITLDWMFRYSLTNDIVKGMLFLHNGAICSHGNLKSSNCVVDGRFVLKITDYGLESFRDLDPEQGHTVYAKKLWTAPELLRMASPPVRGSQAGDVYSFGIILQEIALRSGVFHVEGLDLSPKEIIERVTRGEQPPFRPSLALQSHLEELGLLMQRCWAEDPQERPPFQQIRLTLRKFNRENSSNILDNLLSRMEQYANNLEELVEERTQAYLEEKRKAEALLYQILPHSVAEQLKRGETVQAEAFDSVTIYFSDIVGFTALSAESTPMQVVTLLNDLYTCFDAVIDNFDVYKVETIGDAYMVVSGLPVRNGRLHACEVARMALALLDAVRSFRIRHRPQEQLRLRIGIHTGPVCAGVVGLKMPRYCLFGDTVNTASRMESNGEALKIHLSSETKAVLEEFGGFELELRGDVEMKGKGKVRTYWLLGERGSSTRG
Assay: cGMP elevating activity in CHO/human GC-A cells (Test Example 1)
Type: cell-based
How it was run: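 cGMP in lysates was read by HTRF after a 15 min peptide exposure of GC-A-expressing CHO cells in a CO2 incubator, following 10 min room-temperature preincubation with 1.6 mM IBMX in KRB. T/C values were normalised between solvent wells (0) and 1 nM ANP wells (1).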

How did the EC50 turn out when `CC[C@H](C)[C@@H]1NC(=O)[C@H](CCCNC(=N)N)NC(=O)[C@H](CC(=O)O)NC(=O)[C@H](CCSC)NC(=O)[C@H](CCCNC(=N)N)NC(=O)CNC(=O)CNC(=O)[C@H](Cc2ccccc2)NC(=O)[C@@H](NC(=O)[C@H](CO)NC(=O)[C@H](CO)NC(=O)[C@H](CCCNC(=N)N)NC(=O)[C@H](CCCNC(=N)N)NC(=O)[C@H](CC(C)C)NC(=O)[C@H](CO)NC(=O)CCSC2CC(=O)N(CCC(=O)NCCOCCOCCOCCOCCC(=O)N[C@@H](CCC(=O)NCCO[C@@H]3O[C@H](CO)[C@@H](O[C@@H]4O[C@H](CO)[C@@H](O[C@@H]5O[C@H](CO[C@H]6O[C@H](CO)[C@@H](O)[C@H](O)[C@@H]6O[C@@H]6O[C@H](CO)[C@@H](O[C@@H]7O[C@H](CO[C@]8(C(=O)O)C[C@H](O)[C@@H](NC(C)=O)[C@H]([C@H](O)[C@H](O)CO)O8)[C@H](O)[C@H](O)[C@H]7O)[C@H](O)[C@H]6NC(C)=O)[C@@H](O)[C@H](O[C@H]6O[C@H](CO)[C@@H](O)[C@H](O)[C@@H]6O[C@@H]6O[C@H](CO)[C@@H](O[C@@H]7O[C@H](CO[C@]8(C(=O)O)C[C@H](O)[C@@H](NC(C)=O)[C@H]([C@H](O)[C@H](O)CO)O8)[C@H](O)[C@H](O)[C@H]7O)[C@H](O)[C@H]6NC(C)=O)[C@@H]5O)[C@H](O)[C@H]4NC(C)=O)[C@H](O)[C@H]3NC(C)=O)C(=O)NCCO[C@@H]3O[C@H](CO)[C@@H](O[C@@H]4O[C@H](CO)[C@@H](O[C@@H]5O[C@H](CO[C@H]6O[C@H](CO)[C@@H](O)[C@H](O)[C@@H]6O[C@@H]6O[C@H](CO)[C@@H](O[C@@H]7O[C@H](CO[C@]8(C(=O)O)C[C@H](O)[C@@H](NC(C)=O)[C@H]([C@H](O)[C@H](O)CO)O8)[C@H](O)[C@H](O)[C@H]7O)[C@H](O)[C@H]6NC(C)=O)[C@@H](O)[C@H](O[C@H]6O[C@H](CO)[C@@H](O)[C@H](O)[C@@H]6O[C@@H]6O[C@H](CO)[C@@H](O[C@@H]7O[C@H](CO[C@]8(C(=O)O)C[C@H](O)[C@@H](NC(C)=O)[C@H]([C@H](O)[C@H](O)CO)O8)[C@H](O)[C@H](O)[C@H]7O)[C@H](O)[C@H]6NC(C)=O)[C@@H]5O)[C@H](O)[C@H]4NC(C)=O)[C@H](O)[C@H]3NC(C)=O)C2=O)CSSC[C@@H](C(=O)N[C@@H](CC(N)=O)C(=O)N[C@@H](CO)C(=O)N[C@@H](Cc2ccccc2)C(=O)N[C@@H](CCCNC(=N)N)C(=O)N[C@@H](Cc2ccc(O)cc2)C(=O)O)NC(=O)CNC(=O)[C@H](CC(C)C)NC(=O)CNC(=O)[C@H](CO)NC(=O)[C@H](CCC(N)=O)NC(=O)[C@H](C)NC(=O)CNC1=O` (stereo partly shown) [Compound 2-32, SG-(SG-)Gln*-PEG(3)-Mal-hANP(1-28)] was run?
Its EC50 is 0.41 nM.
